Measurements: patent publication US20240294881A1, “CELL CULTURE SUPPLEMENT FOR PRODUCING STEM CELLS, AND METHOD FOR PRODUCING STEM CELLS” (OPTICELL, INC, priority 2021, published 2024)

Assays:
[1] = tested on: HOS-143B (human osteosarcoma); assay: Study on plate shape: spheroid formation; assay type: cell-based; conditions: 96-well plate coated with 0.125% solution, 2 days of culture
Procedure: (§1) 200 μl of an aqueous solution of the polypeptide represented by formula (1) (0.125%) (cell culture supplement) was added to each well of a commercial 96-well flat-bottom plate (Thermo Fisher Scientific), a V-bottom plate (Thermo Fisher Scientific), and a U-bottom plate (Thermo Fisher Scientific) and allowed to stand at 4° C. for 16 hours.
(§2) Thereafter, the excess cell culture supplement was removed, and the remaining solution was dried under reduced pressure at room temperature for 24 hours.
(§3) Hela cells (human cervical epithelial cancer, JCRB9004, National Institutes of Biomedical Innovation, Health and Nutrition) and HOS-143B (human osteosarcoma) were seeded at 2,000 cells/well in a culture plate coated with the cell culture supplement and cultured at 37° C. under 5% CO2 conditions. The medium used was DMEM+10% FBS.

[2] = tested on: Hela cells (human cervical epithelial cancer); assay: Study on plate shape: spheroid formation; assay type: cell-based; conditions: 96-well plate coated with 0.125% solution, 2 days of culture
Procedure: as §1, §2, §3

A549 lung cancer cells = assay: Real-time PCR of cancer stem cell and undifferentiated stem cell marker genes in cancer cell spheroids; assay type: cell-based, human; conditions: control no supplement, 2D adhesion proliferation, day 4 = 1.0
Procedure: (§4) A culture vessel treated with the cell culture supplement was prepared in the same manner as in Example 7, and the same three types of cancer cells as those in Example 7 were cultured. On day 4 and day 15 after the start of culture, spheroids of each of the three types of cancer cells were taken from the culture vessel and collected in an individual 15-mb centrifuge tube, followed by washing with phosphate buffered saline (−). After removal of the medium, cancer cells cultured in the plate free of the cell culture supplement (control) were washed with PBS (−), detached from the plate with 0.05% trypsin-EGTA and dissociated. The cancer cells were then collected in a 15-mL centrifuge tube and washed again with PBS (−). mRNA was extracted from the collected spheroids and control cells, and the expression of cancer stem cell marker genes was analyzed by real-time PCR.
(§5) Specifically, a NucleoZOL reagent (Macherey-Nagel) reagent was added to each type of cells, and RNA was extracted according to the protocol recommended by the reagent manufacturer and used as template RNA for detecting stem cell markers. For real-time PCR analysis, PCR probes from QuantiFast Probe RT-PCR Kits (QIAGEN; No. 204454) and TaqMan Gene Expression Assay Probe (Thermo Fisher Scientific) were used. PCR analysis was performed with a Rotor-Gene Q (QIAGEN) apparatus. For probes for detecting the expression of cancer stem cell marker genes, the following three PCR probes were used: CD24 (mucin-type glycoprotein, ligand for P-selectin, Oncogene), CD44 (cell surface glycoprotein involved cell-cell interaction, adhesion and migration, cancer stem cell marker), CD133 (five transmembrane glycoprotein, stem cell marker and cancer stem cell marker protein). B-actin was used as an endogenous control gene. For probes for detecting the expression of undifferentiated stem cell marker genes, three transcription factors, SOX2 (sex-determining region Y-box 2), OCT4 (octamer binding transcription factor 4), and NANOG (homeodomain transcription factor), which are used in the production of iPS cells, were used; and β-actin was used as the endogenous control gene. In the gene expression analysis, relative quantification was performed according to the ΔΔCt method (Delta Delta Ct method). The results of analysis according to the ΔΔCt method show the amount of a gene expressed by control cells under the conditions of “no cell culture supplement, 2D adhesion proliferation, day 4” as “1.0” in relative terms, and the increase rate in “the expression level in spheroid proliferation on day 15” was determined by comparison (FIGS. 23 to 25).
(§6) Coating of a culture vessel was completed in the same manner as in Examples 7 and 11, and three types of cancer cells, A549 cells, ES2 cells, and 143B cells, were cultured. For probes for detecting the expression of undifferentiated stem cell marker genes, the following three transcription factors were used: SOX2 (sex-determining region Y-box 2), OCT4 (octamer binding transcription factor 4), and NANOG (homeodomain transcription factor); and β-actin was used as an endogenous control gene. In the gene expression analysis, relative quantification was performed according to the ΔΔCt method (Delta Delta Ct method). The results of analysis according to the ΔΔCt method show the amount of a gene expressed by control cells under the conditions of “no cell culture supplement, 2D adhesion proliferation, day 4” as “1.0” in relative terms, and the increase rate in “the expression level in spheroid proliferation on day 15” was determined by comparison (FIGS. 26 to 28).

[3] = tested on: HOS-143B osteosarcoma cells; assay: as above; assay type: cell-based, human; conditions: control no supplement, 2D adhesion proliferation, day 4 = 1.0
Procedure: as §4, §5, §6

ES2 ovarian cancer cells = assay: as above; assay type: cell-based, human; conditions: for CD24 gene expression level (increase vs control) / CD44 gene expression level (increase vs control) / NANOG gene expression level (increase vs control) / OCT4 gene expression level (increase vs control) / SOX2 gene expression level (increase vs control): control no supplement, 2D adhesion proliferation, day 4 = 1.0
Procedure: as §4, §5, §6

(Pro-Hyp-Gly)n [cell culture supplement]
spheroid formation, U-bottom plate [1]: several spheroids | spheroid formation, V-bottom plate [1]: a single spheroid | spheroid formation, flat-bottom plate [1]: Numerous small spheroids | spheroid formation, U-bottom plate [2]: several spheroids | spheroid formation, V-bottom plate [2]: a single spheroid | spheroid formation, flat-bottom plate [2]: Numerous small spheroids | CD24 gene expression level (increase vs control) (A549 lung cancer cells; day 4 of spheroid culture): 2.2 fold | CD44 gene expression level (increase vs control) (A549 lung cancer cells; day 4 of spheroid culture): 1.6 fold | CD133 gene expression level (increase vs control) (A549 lung cancer cells; day 4 of spheroid culture): 3.4 fold | NANOG gene expression level (increase vs control) (A549 lung cancer cells; day 4 of spheroid culture): 10.6 fold | OCT4 gene expression level (increase vs control) (A549 lung cancer cells; day 4 of spheroid culture): 1.6 fold | SOX2 gene expression level (increase vs control) (A549 lung cancer cells; day 4 of spheroid culture): 5.0 fold | CD24 gene expression level (increase vs control) (A549 lung cancer cells; day 15 of spheroid culture): 4.2 fold | CD44 gene expression level (increase vs control) (A549 lung cancer cells; day 15 of spheroid culture): 2.9 fold | CD133 gene expression level (increase vs control) (A549 lung cancer cells; day 15 of spheroid culture): 13.5 fold | NANOG gene expression level (increase vs control) (A549 lung cancer cells; day 15 of spheroid culture): 55.7 fold | OCT4 gene expression level (increase vs control) (A549 lung cancer cells; day 15 of spheroid culture): 3.7 fold | SOX2 gene expression level (increase vs control) (A549 lung cancer cells; day 15 of spheroid culture): 6.0 fold | CD24 gene expression level (increase vs control) ([3]; day 4 of spheroid culture): 1.34 fold | CD44 gene expression level (increase vs control) ([3]; day 4 of spheroid culture): 2.3 fold | CD133 gene expression level (relative to control, printed as decreased) ([3]; day 4 of spheroid culture): 0.3 fold | NANOG gene expression level (increase vs control) ([3]; day 4 of spheroid culture): 1.6 fold | OCT4 gene expression level (increase vs control) ([3]; day 4 of spheroid culture): 2.5 fold | SOX2 gene expression level (increase vs control) ([3]; day 4 of spheroid culture): 3.5 fold | CD24 gene expression level (increase vs control) ([3]; day 15 of spheroid culture): 1.2 fold | CD44 gene expression level (increase vs control) ([3]; day 15 of spheroid culture): 1.9 fold | CD133 gene expression level (increase vs control) ([3]; day 15 of spheroid culture): 2.1 fold | NANOG gene expression level (increase vs control) ([3]; day 15 of spheroid culture): 1.4 fold | OCT4 gene expression level (increase vs control) ([3]; day 15 of spheroid culture): 2.4 fold | SOX2 gene expression level (increase vs control) ([3]; day 15 of spheroid culture): 1.6 fold | CD24 gene expression level (increase vs control) (ES2 ovarian cancer cells; day 4 of spheroid culture): 11.6 fold | CD44 gene expression level (increase vs control) (ES2 ovarian cancer cells; day 4 of spheroid culture): 1.3 fold | NANOG gene expression level (increase vs control) (ES2 ovarian cancer cells; day 4 of spheroid culture): 3.9 fold | OCT4 gene expression level (increase vs control) (ES2 ovarian cancer cells; day 4 of spheroid culture): 2.6 fold | SOX2 gene expression level (increase vs control) (ES2 ovarian cancer cells; day 4 of spheroid culture): 1.1 fold | CD133 gene expression level (increase vs day 4 spheroid culture) (ES2 ovarian cancer cells; day 15 of spheroid culture, CD133 on day 4 in spheroid culture taken as control value (1.0), not detected in adhesion proliferation cells): 8.5 fold | CD24 gene expression level (increase vs control) (ES2 ovarian cancer cells; day 15 of spheroid culture): 63.2 fold | CD44 gene expression level (increase vs control) (ES2 ovarian cancer cells; day 15 of spheroid culture): 2.9 fold | NANOG gene expression level (increase vs control) (ES2 ovarian cancer cells; day 15 of spheroid culture): 10.9 fold | OCT4 gene expression level (increase vs control) (ES2 ovarian cancer cells; day 15 of spheroid culture): 4.6 fold | SOX2 gene expression level (increase vs control) (ES2 ovarian cancer cells; day 15 of spheroid culture): 3.4 fold
